Test results published in patent publication US20240166695A1, “PEPTIDIC POSITIVE ALLOSTERIC MODULATORS TARGETING TRPV1” (priority 2021, published 2024).

How the values were obtained:
rats = assay: Heat pain test, paw withdrawal latency after intraplantar injection; assay type: in vivo, Sprague-Dawley rats; conditions: for paw withdrawal latency / analgesic effect: intradermal hind paw injection, 100 μl, capsaicin 150 μM alone or with MRS1477 50 μM or TAT-De3 150 μM
Protocol: Animals. Male Sprague-Dawley rats (200-250 g, Charles River Laboratories, Inc.) were housed under a 12 h light-dark cycle and allowed access to food and water ad libitum. The ambient temperature of the holding and testing; rooms was ˜22° C. All procedures involving animals were carried out in strict compliance with the National Institutes of Health and institutional guidelines for the humane care of animals and were approved by the Animal Care and Use Committee of Zhejiang University (Approval ID: ZJU20190100). All efforts were made to minimize both animal numbers and distress within the experiments.
Animal behavioral measurements. A 10 mM stock solution of MRS1477 was prepared in 100% DMSO and further diluted in vehicle to 2 μg/100 μl (50 μM). […] Capsaicin-only injectates contained an equal amount of DMSO as those with MRS1477. All intraplantar injections were made using a. 29 G×½″, 3/10 cc insulin syringe. The experimenter was blinded to the identity of the injectates in the various behavioral experiments.
Thermal hyperalgesia measurement was performed as reported previously (11, 35). Briefly, unrestrained rats were placed on a clear glass platform which a light beam was applied onto the plantar hind paws of the animals under a small plastic cage which allowed them to move freely. The thermal nociceptive response was defined as the latency between light stimulus onset and paw withdrawal using a feedback-controlled shutdown unit. The intensity of the light stimulus was set such that naive rats responded with a latency of approximately 5 s. Each paw was tested one time. In the absence of a response within a predetermined maximum latency (30 s), the test was terminated to prevent tissue damage. On the day of testing, rats were allowed to habituate for at least 30 min prior to thermal stimulation. […]
We observed significant analgesic effects of TAT-De3 intradermally injected into the hind paw of rats against thermal pain. […] We recorded paw withdrawal latency to reflect the pain sensation. […]

[1] = Body temperature measured in the course of heat pain tests; conditions: rats, injection of PAM in heat pain tests
TRPV1 = assay: Calcium imaging (Fluo-4) of capsaicin activation in transfected HEK293 cells; assay type: cell-based; conditions: 0.5 nM capsaicin; cells expressing only TRPV1
Protocol: We then investigated whether, upon binding of the designed proteins, TRPV1 activation was positively modulated. […] Probenecid (2 mM) was included in all solutions to prevent Fluo-4 leakage from cells. At the end of incubation, cells were washed three times with ECS and incubated in the same solution for another 20 min at room temperature to complete the intracellular hydrolysis process of the AM ester, which converts the non-fluorescent Fluo-4/AM into the fluorescent version Fluo-4.
Coverslip with dye-loaded cells was placed in the quick-release magnetic chamber (Warner) and mounted on the stage of a Nikon Eclipse TE2000-U microscope system equipped with a Roper Cascade 128B CCD camera. Fluo-4 was excited by an Argon laser with a filter set of Z488/10 (excitation), z488rdc (dichroic) and recorded through an emission filter HQ5001p (all from Chroma). The duration of light exposure was controlled by a computer-driven mechanical shutter (Uniblitz). Cell images were acquired sequentially with an exposure period of 200 ms at an interval of 1 s. The shutter and the camera were controlled and synchronized by MetaMorph software (Universal Imaging).

hyperthermia (body temperature) [1]	SMILES	duration of analgesic effects after a single injection (rats; co-injected with capsaicin 150 μM)	paw withdrawal latency / analgesic effect (rats)	calcium influx (TRPV1)
did not cause hyperthemia	CCOC(=O)C1=C(c2ccccc2)NC(C)=C(C(=O)SCCOC)C1CC (centres unmarked) [MRS1477]	diminished after three days	paw withdrawal latency was increased	–
–	COc1cc(CNC(=O)CCCC/C=C/C(C)C)ccc1O [capsaicin, reference compound]	–	no change in the paw withdrawal latency	did not illicit calcium influx
